Laboratory results taken from US9510581B2, “Bed bug lures” (Rutgers, The State University of New Jersey, priority 2011, dated 2016).

What was measured:
Format in all cases: in vivo, Cimex lectularius L.
[1] = test system: bed bugs; assay: Screening of chemical lures in four-choice pitfall trap bioassays; details: for Trap catch versus corresponding unbaited control: four-choice bioassays, P<0.05; for Percent catch of bed bugs in pitfall traps, Mean (%) ± SE: four-choice: three lures and an unbaited control per arena, 50 μl lure, plastic tray arena, 50 bugs, 8 hours
Protocol: Bed bugs were collected from an infested house in Lakewood, N.J. They were maintained in plastic containers (4.7 cm height and 5 cm diameter) with folded paper as harborages at 26° C.±1° C., 40±10% relative humidity, a 12:12 hour (L:D) photoperiod, and were deprived of food for the entire duration of the study. All bioassays were conducted within 3 months after bed bugs were collected.
Pitfall traps were used to evaluate the attractiveness of lures. The pitfall trap was an inverted plastic dog bowl (600 ml volume, 18 cm diameter, 6.4 cm deep and 1 mm thickness) (IKEA, Baltimore, Md., USA) (FIG. 1a). The outer wall of the trap was covered with a layer of paper surgical tape (Caring International, Mundelein, Ill., USA), which was painted black with ColorPlace spray paint (WalMart Stores Inc., Bentonville, USA).
Two types of experimental arenas were used: a) wooden door arenas (200 by 76 cm by 6.4 cm) (length by width by height) with wooden floor, and b) plastic tray arenas (80 by 75 by 5 cm) (length by width by height) with bottom lined with brown paper (FIG. 1b). A layer of fluoropolymer resin (DuPont Polymers, Wilmington, Del., USA) was applied to inner walls of the experimental arenas to prevent the bugs from escaping. A layer of this resin was also applied to inner walls of the pitfall traps in a similar fashion to confine the bed bugs that fell into the traps. A filter paper (15 cm diameter) was placed on the floor in the center of each arena, and then a plastic ring (13.3 cm diameter and 6.4 cm height) was placed on the filter paper for confining the bed bugs. A piece of folded cardboard and folded fabric was placed on the filter paper to provide harborages for bed bugs. Six additional paper harborages measuring 5.1 cm long and 3.3 cm wide were placed along the edges of the floor of each wooden arena. Two wooden door arenas were located at least 6 m away from each other in a 15 m long and 9 m wide room at 23-25° C. Two additional wooden door arenas were located in two 4 m long and 2.3 m wide rooms at 24-25° C. These rooms had normal air current through vents on the ceilings or through the open door. In experiments using plastic tray arenas, four arenas were placed simultaneously in a non-ventilated, closed room measuring 4 m long and 2.3 m wide at 24-25° C. A 12:12 hour (L:D) cycle was maintained in all the rooms that were used for bioassays. […]
Twelve known or potential bed bug chemical lures (Table 1) were evaluated for their attractiveness to bed bugs in plastic tray arenas.

[2] = test system: bed bugs; assay: Relative attractiveness of four chemical lures in four-choice bioassays; details: for Percent of bed bugs captured in baited pitfall traps: four traps per arena, each baited with one of four chemicals, four replicates
Protocol: Four traps in each arena were baited with one of these chemicals. Four arenas were used to obtain four replicates. Percent attraction in multiple comparison experiments involving a control was calculated as: Percent attraction=100×(T−C)/Total, where “T” is the number of bed bugs in the baited pitfall trap and “C” is the number of bed bugs in the non-baited pitfall trap. “Total” is the total number of healthy bugs in each experiment arena at time of recording the bed bug locations. The percent catch is the number of bed bugs found in a pitfall trap divided by number of healthy bed bugs in each arena at the time of recording the results. Positive values indicate attraction to the treatment and negative values indicate repellency; and the values range from −100 (complete repellency) to +100 (complete attraction). For the paired design experiments, mean percent catch were analyzed by paired t-test (P=0.05). Mean percent attractions among the treatments were compared using the non-parametric Kruskal-Wallis tests followed by Tukey's HSD test. The data for Experiment 2.10.1 and 2.10.2 were pooled for analyzing differences among treatments (treatment×day interaction was insignificant from Analysis of Variance test).

[3] = test system: bed bugs; assay: Attractiveness of chemical lures in two-choice pitfall trap bioassays; details: baited versus unbaited trap, Kruskal-Wallis / Tukey's HSD
Protocol: These chemicals were further evaluated to confirm their attractiveness to bed bugs using two-choice assays. The experimental setup and testing procedure were similar to those described above however only two traps were placed at opposite corners of each arena (FIG. 1b). One trap was used as an unbaited control and the other trap received a chemical lure. Each chemical lure was evaluated 8 times over two consecutive days. The baited and non-baited trap positions in each arena were switched on the second day to eliminate any positional effect that could influence the trap catch. Percent attraction in multiple comparison experiments involving a control was calculated as: Percent attraction=100×(T−C)/Total, where “T” is the number of bed bugs in the baited pitfall trap and “C” is the number of bed bugs in the non-baited pitfall trap. “Total” is the total number of healthy bugs in each experiment arena at time of recording the bed bug locations. The percent catch is the number of bed bugs found in a pitfall trap divided by number of healthy bed bugs in each arena at the time of recording the results. Positive values indicate attraction to the treatment and negative values indicate repellency; and the values range from −100 (complete repellency) to +100 (complete attraction). For the paired design experiments, mean percent catch were analyzed by paired t-test (P=0.05). […]

[4] = test system: bed bugs; assay: Effect of CO2 release rates on bed bug trap efficacy, door arenas; details: release rates 200, 300, 400 and 500 ml/min
Protocol: The two traps were placed at opposite ends equidistant (85 cm) from the center. The experiment was tested over 4 consecutive days. On each day, a different CO2 release rate was used in each arena following a Latin square design. The CO2 source was 5 lb cylinders (Airgas East Inc., Piscataway, N.J., USA). The tested release rates were: 200, 300, 400 and 500 ml/min. The rate was determined as ml of water displaced by CO2 per unit of time using a Bubble-O-Meter (Bubble-O-Meter, Dublin, Ohio, USA). The CO2 was introduced into 240 ml plastic cups that were placed on the pitfall traps (FIG. 1c). Two holes were made on the lid of each plastic cup for CO2 to escape. Fifty bed bug nymphs and adult males were released into the center of each arena and confined with a plastic ring. The bugs were acclimated for approximately 15 hours before starting the treatments. At 1 hour after dark cycle, the plastic ring confining the bugs was removed. The numbers of bed bugs trapped in the pitfall traps and those in the arenas were collected and counted after 8 hours. […] The number of dead or moribund bed bugs in each arena was very low (<5%) in all the bioassays. After counting, dead and moribund bugs were replaced with healthy bugs in each arena. All bugs were placed back to the center of the arenas and confined with plastic rings for 15 hours before starting next bioassay.

## C=CC(O)CCCCC (stereo not drawn) [1-octen-3-ol]
[1]
  Trap catch versus corresponding unbaited control: significantly higher number of bugs than their corresponding controls
  Percent catch of bed bugs in pitfall traps, Mean (%) ± SE: 28.3 ± 2.5a^a %
[2]
  Percent of bed bugs captured in baited pitfall traps: 17.0±1.8%
[3]
  Attraction compared among lures (percent attraction): not significantly different from nonanal

## CC(=O)CCC=C(C)C [6-Methyl-5-Hepten-2-one]
[1]
  Percent catch of bed bugs in pitfall traps, Mean (%) ± SE: 20.9 ± 2.52ab %

## OCc1ccccc1 [Benzyl alcohol]
[1]
  Percent catch of bed bugs in pitfall traps, Mean (%) ± SE: 25.1 ± 3.4ab %

## O=C=O [CO2, carbon dioxide]
[4]
  Attraction of bed bugs to traps baited with CO2: very attractive to bed bugs regardless of the CO2 release rates

## C[C@H](O)C(=O)O [L-lactic acid]
[1]
  Trap catch versus corresponding unbaited control: significantly higher number of bugs than their corresponding controls
  Percent catch of bed bugs in pitfall traps, Mean (%) ± SE: 25.7 ± 2.7a %

## CCCCCCCCC=O [Nonanal]
[1]
  Trap catch versus corresponding unbaited control: significantly higher number of bugs than their corresponding controls
  Percent catch of bed bugs in pitfall traps, Mean (%) ± SE: 27.7 ± 3.2a %
[2]
  Percent of bed bugs captured in baited pitfall traps: 34.0±4.6%
[2]; four-choice comparison, P=0.01
  Attractiveness relative to spearmint oil, 1-octen-3-ol or coriander Egyptian oil: approximately 2 fold
[3]
  Attraction compared among lures (percent attraction): significantly more attractive than L-lactic acid, and L-carvone

## CC(O)c1ccccc1 (stereo not drawn) [Styralol]
[1]
  Percent catch of bed bugs in pitfall traps, Mean (%) ± SE: 16.4 ± 2.4bc %

## CC(=O)CC/C=C(/C)CCC=C(C)C [Z-Geranyl Acetone]
[1]
  Percent catch of bed bugs in pitfall traps, Mean (%) ± SE: 13.0 ± 2.4a %

## L-carvone
[1]
  Trap catch versus corresponding unbaited control: significantly higher number of bugs than their corresponding controls
  Percent catch of bed bugs in pitfall traps, Mean (%) ± SE: 27.5 ± 3.5a %
